The structures appear in SMILES notation.

As to `C=CC1C[N+]2(Cc3c(F)c(F)c(F)c(F)c3F)CCC1C[C@H]2[C@H](O)c1ccnc2ccc(OC)cc12.[Br-]` (some centres unmarked), the melting point – broadly, the temperature, or range, at which the solid turns liquid – was 162 to 165 °C (dec.). Consider `C=CC1C[N+]2(Cc3c4ccccc4cc4ccccc34)CCC1C[C@H]2[C@H](O)c1ccnc2ccc(OC)cc12.[Cl-]` (some centres unmarked), for which the melting point was 150 to 152 °C (dec.).

Source of the values: patent US20140206633A1, “PROCESS FOR THE PREPARATION OF ISOXAZOLINE DERIVATIVES” (SYNGENTA CROP PROTECTION LLC, priority 2010, published 2014).
